In test [1] the test system is TLR9+CXCL4-activated human plasmacytoid dendritic cells (pDCs). The test is described as follows: IFN-α secretion (ELISA) by purified pDCs activated with CpG-B (TLR9 ligand) + CXCL4. Conditions: CXCL4 present. The format is cell-based. How it is done:
(§1) PBMCs were prepared using Ficoll-Paque density gradient from fresh blood under internal Institutional Review Board-approved protocols. pDCs were isolated as previously described (Guiducci et al. 2008) using either using negative depletion (Miltenyi Biotech) or following cell sorting using a […]. All BDCA4+ cells also express BDCA2 (results not shown). As a result, pure pDCs were obtained and no markers for neutrophils (CD66) or myeloid cells were found by PCR.
(§2) For the TLR9 activation in pDCs, the cells were incubated in complete media alone, or CpG-B 1018 (0.25 or 1 μM), or CpG-C 274 at similar concentrations. In some assays, cells were also incubated with 10 μg/ml CXCL4 (R&D systems).
(§3) Supernatant from B cells and pDCs 24 hour culture was used for quantification of secreted IFNα with the use of an enzyme-linked immunosorbent assay (ELISA) (Mabtech) performed according to the manufacturer's protocol.
(§4) Data were analyzed using a Mann-Whitney U-test (t test using non parametric criteria for independent samples). Comparisons between PBMC and pDCs-depleted PBMC were tested using a parametric paired t-test. All analyses were performed using Prism software (GraphPad Software). Differences were considered significant at a P level less than 0.05 with *p<0.05; **p<0.01; ***p<0.001.

Test [2] concerns TLR9-activated human plasmacytoid dendritic cells (pDCs). As to the kind of experiment: IFN-α secretion (ELISA) by purified pDCs activated with TLR9 ligand alone (CpG1018 / CpG C274). Conditions: without CXCL4; various dilutions. In kind it is cell-based. As to the method:
as §1, §2, §3, §4

In the case of `CC(=O)N[C@H]1[C@H]([C@H](O)[C@H](O)CO)O[C@@](O)(C(=O)O)C[C@@H]1O` [N-Acetylneuraminic acid, 5-(acetylamino)-3,5-dideoxy-D-glycero-α-D-galacto-non-2-ulopyranosonic acid], in test [1], the “inhibitory effect on TLR9-activated pDCs, IFN-α production relative to CpG-CXCL4” value is given as “significant inhibitory effect”. Also, the “inhibitory effect on TLR9-activated pDCs, IFN-α production relative to the TLR9 agonist CpG C274” value in test [2] is listed as “significant inhibitory effect”.

The values above are taken from patent US20240307423A1, “FRACTIONS OF, AND MOLECULES RELEASED IN, PROTEIN RICH PLASMA WHICH INHIBIT IMMUNE RESPONSES AND REDUCE INFLAMMATION, AND METHODS OF OBTAINING” (NEW YORK SOCIETY FOR THE RELIEF OF THE RUPTURED AND …, priority 2021, published 2024).
